# Source: patent US20240398784A1, “C-LINKED ISOQUINOLINE AMIDES AS LRRK2 INHIBITORS, PHARMACEUTICAL COMPOSITIONS, AND USES THEREOF” (Merck Sharp & Dohme LLC, priority 2021, published 2024)
# Molecular target: LRRK2 G2019S (Homo sapiens, UniProt Q5S007, G2019S)
# Assay: LRRK2 G2019S Km ATP LanthaScreen assay
# Format: biochemical
# Settings: read-out: LRRK2 pIC50 (converted)
# LRRK2 G2019S, sequence (Q5S007 whole entry G2019S): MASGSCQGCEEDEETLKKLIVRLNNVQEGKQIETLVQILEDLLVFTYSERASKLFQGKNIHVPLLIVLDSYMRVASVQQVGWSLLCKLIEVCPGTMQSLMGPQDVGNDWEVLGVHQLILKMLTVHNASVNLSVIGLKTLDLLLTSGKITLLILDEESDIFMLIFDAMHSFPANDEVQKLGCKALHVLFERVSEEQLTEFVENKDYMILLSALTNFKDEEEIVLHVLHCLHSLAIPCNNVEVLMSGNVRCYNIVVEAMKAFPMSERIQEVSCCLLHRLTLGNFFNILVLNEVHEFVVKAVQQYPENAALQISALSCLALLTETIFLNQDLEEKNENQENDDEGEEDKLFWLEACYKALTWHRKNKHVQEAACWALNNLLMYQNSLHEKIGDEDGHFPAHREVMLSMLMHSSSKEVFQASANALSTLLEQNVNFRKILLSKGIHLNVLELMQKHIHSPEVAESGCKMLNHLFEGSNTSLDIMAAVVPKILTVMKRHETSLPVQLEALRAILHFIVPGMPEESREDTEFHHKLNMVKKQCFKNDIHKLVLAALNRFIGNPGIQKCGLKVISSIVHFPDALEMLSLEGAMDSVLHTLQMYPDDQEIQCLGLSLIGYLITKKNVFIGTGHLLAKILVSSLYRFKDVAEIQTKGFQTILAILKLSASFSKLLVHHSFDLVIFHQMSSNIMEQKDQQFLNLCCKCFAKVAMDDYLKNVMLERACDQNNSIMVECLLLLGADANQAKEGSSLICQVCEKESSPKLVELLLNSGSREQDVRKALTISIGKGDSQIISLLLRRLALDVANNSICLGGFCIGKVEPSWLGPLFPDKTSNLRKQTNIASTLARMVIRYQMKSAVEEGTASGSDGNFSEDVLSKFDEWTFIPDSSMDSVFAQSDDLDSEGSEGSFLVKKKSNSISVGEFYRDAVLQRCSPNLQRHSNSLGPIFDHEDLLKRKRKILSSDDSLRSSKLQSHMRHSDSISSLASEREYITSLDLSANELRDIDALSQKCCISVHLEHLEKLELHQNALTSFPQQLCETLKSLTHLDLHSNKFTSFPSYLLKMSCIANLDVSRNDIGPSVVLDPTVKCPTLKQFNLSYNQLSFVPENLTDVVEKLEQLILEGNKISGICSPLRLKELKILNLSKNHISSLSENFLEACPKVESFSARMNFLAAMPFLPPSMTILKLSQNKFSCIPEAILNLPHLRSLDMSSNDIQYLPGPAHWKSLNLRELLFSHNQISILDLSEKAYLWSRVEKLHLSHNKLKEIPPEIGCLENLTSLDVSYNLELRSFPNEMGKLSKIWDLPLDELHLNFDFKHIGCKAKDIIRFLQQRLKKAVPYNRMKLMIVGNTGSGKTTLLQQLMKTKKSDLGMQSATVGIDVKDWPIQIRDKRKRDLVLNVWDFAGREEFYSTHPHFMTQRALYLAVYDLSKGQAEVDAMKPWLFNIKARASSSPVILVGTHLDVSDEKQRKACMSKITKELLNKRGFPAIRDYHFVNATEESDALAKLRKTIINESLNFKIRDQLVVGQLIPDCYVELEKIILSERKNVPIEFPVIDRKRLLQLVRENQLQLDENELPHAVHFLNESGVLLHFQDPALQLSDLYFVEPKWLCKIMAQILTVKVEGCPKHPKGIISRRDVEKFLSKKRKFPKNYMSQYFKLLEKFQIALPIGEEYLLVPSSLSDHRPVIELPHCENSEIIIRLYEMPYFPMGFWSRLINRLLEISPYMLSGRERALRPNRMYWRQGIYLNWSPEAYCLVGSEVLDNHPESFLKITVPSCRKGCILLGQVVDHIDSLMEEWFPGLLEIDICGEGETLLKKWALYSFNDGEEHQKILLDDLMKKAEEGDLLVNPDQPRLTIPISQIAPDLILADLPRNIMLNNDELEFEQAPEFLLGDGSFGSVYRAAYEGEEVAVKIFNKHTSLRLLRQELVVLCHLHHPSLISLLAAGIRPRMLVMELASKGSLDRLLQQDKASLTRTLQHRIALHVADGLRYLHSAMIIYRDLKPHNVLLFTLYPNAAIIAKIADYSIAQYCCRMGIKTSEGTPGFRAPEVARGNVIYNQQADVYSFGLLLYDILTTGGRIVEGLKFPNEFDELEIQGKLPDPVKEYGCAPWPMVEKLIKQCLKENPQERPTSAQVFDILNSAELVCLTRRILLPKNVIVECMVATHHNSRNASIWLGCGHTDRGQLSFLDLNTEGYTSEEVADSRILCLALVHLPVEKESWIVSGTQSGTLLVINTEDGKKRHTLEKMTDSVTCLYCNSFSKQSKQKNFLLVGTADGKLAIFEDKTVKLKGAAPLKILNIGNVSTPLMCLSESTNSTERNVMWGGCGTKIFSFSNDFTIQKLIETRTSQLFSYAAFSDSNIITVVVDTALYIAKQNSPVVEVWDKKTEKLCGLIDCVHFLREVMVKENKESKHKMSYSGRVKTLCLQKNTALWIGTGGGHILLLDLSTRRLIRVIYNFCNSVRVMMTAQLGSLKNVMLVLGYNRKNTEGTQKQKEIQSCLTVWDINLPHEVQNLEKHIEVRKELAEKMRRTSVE
row,IC50 [nM],SMILES
1,129,"CC(CC#N)c1cc2cc(NC(=O)C3CC3c3ccccn3)ncc2cc1Cl (single isomer, unassigned) [Ex-9.22, N-(7-chloro-6-(1-cyanopropan-2-yl)isoquinolin-3-yl)-2-(pyridin-2-yl)cyclopropane-1-carboxamide]"
2,3.39,"CC(C)(O)C1CC(C(=O)Nc2cc3cc(C4(C#N)CC45CC5)ccc3cn2)C1 (single isomer, unassigned) [Ex-1.26, (1R,3R or 1S,3S)-N-(6-((R or S)-1-cyanospiro[2.2]pentan-1-yl)isoquinolin-3-yl)-3-(2-hydroxypropan-2-yl)cyclobutane-1-carboxamide]"
3,5.13,CC1(N2CCC(c3cc4cc(NC(=O)C5CCC(C(F)(F)F)OC5)ncc4cc3Cl)CC2)COCC1O (stereo not drawn) [Ex-2.62]
4,11.5,"CC(=O)Nc1cc2cc(C3CCN(C4COC4)CC3)c(Cl)cc2cn1 [Ex-7.1, N-(7-chloro-6-(1-(oxetan-3-yl)piperidin-4-yl)isoquinolin-3-yl)acetamide]"
5,1.95,"CC1(N2CCC(c3cc4cc(NC(=O)C5C6COCC65)ncc4cc3Cl)CC2)CCOC1 (single isomer, unassigned) [Ex-6.11, N-(7-chloro-6-(1-(3-methyltetrahydrofuran-3-yl)piperidin-4-yl)isoquinolin-3-yl)-3-oxabicyclo[3.1.0]hexane-6-carboxamide]"
6,0.513,Cc1cc2cnc(NC(=O)C3CCOC(C)(C)C3)cc2cc1C1CCN(C2(C)COCC2O)CC1 (stereo not drawn) [Ex-2.49]
7,1.82,"COC1COCC1(C)N1CCC(c2cc3cc(NC(=O)C4CC45CCOCC5)ncc3cc2Cl)CC1 (single isomer, unassigned) [Ex-6.23, N-(7-chloro-6-(1-(4-methoxy-3-methyltetrahydrofuran-3-yl)piperidin-4-yl)isoquinolin-3-yl)-6-oxaspiro[2.5]octane-1-carboxamide]"
8,87.1,"CC1(N2CCC(c3cc4cc(NC(=O)C5CC5c5ccccn5)ncc4cc3Cl)CC2)CCOC1 (single isomer, unassigned) [Ex-6.33, N-(7-chloro-6-(1-(3-methyltetrahydrofuran-3-yl)piperidin-4-yl)isoquinolin-3-yl)-2-(pyridin-2-yl)cyclopropane-1-carboxamide]"
9,3630,"CC1(C)CCC(C(=O)Nc2cc3cc(C4CCC(N5CCC(F)C5)CC4)c(Cl)cc3cn2)CO1 (single isomer, unassigned) [Ex-5.21, N-(7-chloro-6-(4-(3-fluoropyrrolidin-1-yl)cyclohexyl)isoquinolin-3-yl)-6,6-dimethyltetrahydro-2H-pyran-3-carboxamide]"
10,2.63,"COC1CC(C(=O)Nc2cc3cc(C4CCN(C5COC5)CC4)c(Cl)cc3cn2)C1 (racemic) [Ex-7.9, Rac-N-(7-chloro-6-(1-(oxetan-3-yl)piperidin-4-yl)isoquinolin-3-yl)-3-methoxycyclobutane-1-carboxamide]"
11,219,"Cc1cc2cnc(NC(=O)C3CC34CCOC4)cc2cc1C1CCN(C2(C)COCC2F)CC1 (single isomer, unassigned) [Ex-15.8, N-(6-(1-(4-fluoro-3-methyltetrahydrofuran-3-yl)piperidin-4-yl)-7-methylisoquinolin-3-yl)-5-oxaspiro[2.4]heptane-1-carboxamide]"
12,25.7,N#CC1(c2ccc3cnc(NC(=O)C4CC45CCOC5)cc3c2)CC12CC2 (stereo not drawn) [Ex-2.65]
13,10.5,"COC1CCC(C(=O)Nc2cc3cc(C4CCN(C5(C)COCC5O)CC4)c(Cl)cc3cn2)CC1 (single isomer, unassigned) [Ex-10.1, 1,4-trans, (3R,4R)- or 1,4-trans, (3S,4S)- or 1,4-cis, (3R,4R)- or 1,4-cis, (3S,4S)-N-(7-chloro-6-(1-(4-hydroxy-3-methyltetrahydrofuran-3-yl)piperidin-4-yl)isoquinolin-3-yl)-4-methoxycyclohexane-1-carboxamide]"
14,14.5,N#CC1(c2ccc3cnc(NC(=O)C4CC45CCOC5)cc3c2)CC12CC2 (stereo not drawn) [Ex-2.66]
15,0.0813,"C[C@@]1(N2CC[C@@H](c3cc4cc(NC(=O)[C@H]5CC56CC6)ncc4cc3Cl)[C@H](F)C2)COC[C@@H]1O [Ex-23.1, (S)-N-(7-chloro-6-((3S,4S)-3-fluoro-1-((3R,4R)-4-hydroxy-3-methyltetrahydrofuran-3-yl)piperidin-4-yl)isoquinolin-3-yl)spiro[2.2]pentane-1-carboxamide]"
16,0.562,"CC1(N2CCC(c3cc4cc(NC(=O)C5CC5C(F)F)ncc4cc3Cl)CC2)COCC1O (single isomer, unassigned) [Ex-4.44, N-(7-chloro-6-(1-(4-hydroxy-3-methyltetrahydrofuran-3-yl)piperidin-4-yl)isoquinolin-3-yl)-2-(difluoromethyl)cyclopropane-1-carboxamide]"
17,14.1,"N#CC1(c2ccc3cnc(NC(=O)C4CCN(C(=O)C(F)(F)F)CC4)cc3c2)CC12CC2 (single isomer, unassigned) [Ex-1.30, N-(6-((R or S)-1-cyanospiro[2.2]pentan-1-yl)isoquinolin-3-yl)-1-(2,2,2-trifluoroacetyl)piperidine-4-carboxamide]"
18,0.234,CC1(C)CC(C(=O)Nc2cc3cc(C4CCN(C5(C)COCC5O)CC4)c(Cl)cc3cn2)CO1 (stereo not drawn) [Ex-2.29]

row,IC50 [nM],SMILES
1,35.5,"N#CC1(c2cc3cc(NC(=O)C4CC4)ncc3cc2F)CC12CC2 (single isomer, unassigned) [Ex-18.9, (R or S)-N-(6-(1-cyanospiro[2.2]pentan-1-yl)-7-fluoroisoquinolin-3-yl)cyclopropanecarboxamide]"
2,0.0813,"CC1(C)CC(C(=O)Nc2cc3cc(C4CCN(C5(C)COCC5F)CC4)c(Cl)cc3cn2)CCO1 (single isomer, unassigned) [Ex-6.37, N-(7-chloro-6-(1-(4-fluoro-3-methyltetrahydrofuran-3-yl)piperidin-4-yl)isoquinolin-3-yl)-2,2-dimethyltetrahydro-2H-pyran-4-carboxamide]"
3,110,"O=C(Nc1cc2cc(C3CCC(N4CC(F)(F)C4)CC3)c(Cl)cc2cn1)C1CC1c1ccccn1 (single isomer, unassigned) [Ex-5.3, N-(7-chloro-6-(4-(3,3-difluoroazetidin-1-yl)cyclohexyl)isoquinolin-3-yl)-2-(pyridin-2-yl)cyclopropane-1-carboxamide]"
4,11,"COCC(C)c1cc2cc(NC(=O)C3CC3c3ccccn3)ncc2cc1Cl (single isomer, unassigned) [Ex-9.19, N-(7-chloro-6-(1-methoxypropan-2-yl)isoquinolin-3-yl)-2-(pyridin-2-yl)cyclopropane-1-carboxamide]"
5,39.8,N#CC1(c2ccc3cnc(NC(=O)C4CCN(CC(F)(F)F)C4)cc3c2)CC12CC2 (stereo not drawn) [Ex-2.44]
6,83.2,"CC1C(C(=O)Nc2cc3cc(C4CCN(C5(C)COCC5O)CC4)c(Cl)cc3cn2)C1c1ccccn1 (single isomer, unassigned) [Ex-4.51, N-(7-chloro-6-(1-(4-hydroxy-3-methyltetrahydrofuran-3-yl)piperidin-4-yl)isoquinolin-3-yl)-2-methyl-3-(pyridin-2-yl)cyclopropane-1-carboxamide]"
7,1.55,CC1(N2CCC(c3cc4cc(NC(=O)C5CC5F)ncc4cc3Cl)CC2)COCC1O (stereo not drawn) [Ex-3.4]
8,0.0813,"Cc1cc2cnc(NC(=O)C3CC34CCOCC4)cc2cc1C1CCN(C2(C)COCC2C)CC1 (single isomer, unassigned) [Ex-15.4, N-(6-(1-(3,4-dimethyltetrahydrofuran-3-yl)piperidin-4-yl)-7-methylisoquinolin-3-yl)-6-oxaspiro[2.5]octane-1-carboxamide]"
9,6.17,"CC1(C)CCC(C(=O)Nc2cc3cc(C4CCC(N5CCC(F)C5)CC4)c(Cl)cc3cn2)CO1 (single isomer, unassigned) [Ex-5.22, N-(7-chloro-6-(4-(3-fluoropyrrolidin-1-yl)cyclohexyl)isoquinolin-3-yl)-6,6-dimethyltetrahydro-2H-pyran-3-carboxamide]"
10,0.0813,"CCC1C(C(=O)Nc2cc3cc(C4CCC(N5CC(F)C5)CC4)c(Cl)cc3cn2)C1c1cnn(C)c1 (single isomer, unassigned) [Ex-11.8, N-(7-chloro-6-(4-(3-fluoroazetidin-1-yl)cyclohexyl)isoquinolin-3-yl)-2-ethyl-3-(1-methyl-1H-pyrazol-4-yl)cyclopropane-1-carboxamide]"
11,12.6,"Cc1nc(C(=O)Nc2cc3cc(C4CCN(C5COC5)CC4)c(Cl)cc3cn2)co1 [Ex-1.37, N-(7-chloro-6-(1-(oxetan-3-yl)piperidin-4-yl)isoquinolin-3-yl)-2-methyloxazole-4-carboxamide]"
12,0.0813,"Cc1cc2cnc(NC(=O)C3CC3c3ccccn3)cc2cc1C1CCN(C2(C)COCC2O)CC1 (single isomer, unassigned) [Ex-4.78, N-(6-(1-(4-hydroxy-3-methyltetrahydrofuran-3-yl)piperidin-4-yl)-7-methylisoquinolin-3-yl)-2-(pyridin-2-yl)cyclopropane-1-carboxamide]"
13,0.407,CC1(N2CCC(c3cc4cc(NC(=O)C5CC56CCC(F)(F)CC6)ncc4cc3Cl)CC2)COCC1O (stereo not drawn) [Ex-2.16]
14,117,"O=C(Nc1cc2cc(C3CCN(C4COCC4O)CC3)c(Cl)cc2cn1)C1CC12CCOCC2 (single isomer, unassigned) [Ex-4.4, N-(7-chloro-6-(1-(4-hydroxytetrahydrofuran-3-yl)piperidin-4-yl)isoquinolin-3-yl)-6-oxaspiro[2.5]octane-1-carboxamide]"
15,1.1,"CC1CC1C(=O)Nc1cc2cc(C3CCN(C4COC4)CC3)c(Cl)cc2cn1 (single isomer, unassigned) [Ex-9.5, N-(7-chloro-6-(1-(oxetan-3-yl)piperidin-4-yl)isoquinolin-3-yl)-2-methylcyclopropane-1-carboxamide]"
16,0.355,CC1(C)CC1C(=O)Nc1cc2cc(C3CCN(C4(C)COCC4O)CC3)c(Cl)cc2cn1 (stereo not drawn) [Ex-2.12]
17,0.631,"COC1CC(C(=O)Nc2cc3cc(C4(C#N)CC45CC5)ccc3cn2)C1 (single isomer, unassigned) [Ex-1.3, (1R,3R or 1S,3S)-N-(6-((R or S)-1-cyanospiro[2.2]pentan-1-yl)isoquinolin-3-yl)-3-methoxycyclobutane-1-carboxamide]"
18,60.3,"CC1CC1(C#N)c1ccc2cnc(NC(=O)C3CC3)cc2c1 (single isomer, unassigned) [Ex-18.6, (R or S)-N-(6-(1-cyano-2-methylcyclopropyl)isoquinolin-3-yl)cyclopropanecarboxamide]"
